From patent publication US12521393B2, “Cytotoxicity targeting chimeras for CCR2-expressing cells” (GLAXOSMITHKLINE INTELLECTUAL PROPERTY DEVELOPMENT LIMITED, priority 2021, dated 2026)

Experiments:
[1] = tested on: endogenous target monocytes in human PBMC; experiment: PBMC ex vivo monocyte depletion flow cytometry assay (Example 200); assay type: cell-based; conditions: with anti-cotinine antibody (SEQ ID NO: 11/12), 18-24 hours, EC50 in molar, read-out: Ex Vivo Depletion Assay pEC50 (converted)
Summary of the method: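 Monocyte depletion is reported as pEC50, averaged or given individually across runs, and read by flow cytometry staining CD45, CD14 and CD4 with a viability dye. Compounds, diluted four-fold over 11 points from 1 mM DMSO stocks, were combined with 30 μg/mL Fc-enhanced anti-cotinine antibody and human PBMC, then incubated 18-24 h at 37° C.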

[2] = molecular target: anti-cotinine antibody (SEQ ID NO: 11/12, rabbit variable region with human IgG1 Fc DE mutation); experiment: SPR binding of anti-cotinine antibody to ARM compounds, Biacore T200, 37° C. (Example 202); conditions: SPR Biacore T200, 37° C., pH 7.4, antibody SEQ ID NO: 11/12 captured on protein A; Kd in molar
Experimental: Anti-cotinine antibodies having a heavy chain sequence of SEQ ID NO: 11 and a light chain sequence of SEQ ID NO: 12 (rabbit variable region with human IgG1 Fc domain containing a DE mutation (S239D/1332E)) were captured on one or more flow cells of a protein A sensor chip (Cytiva) using a Biacore T200 while reserving flow cell 1 as a reference. Following capture, a 3000 second wait step was included to reduce drift during compound analysis. ARM compounds of Formula (I) were then injected at 100 μL/min with 200 and 2000 second association and dissociation times. The entire experiment was run at 37° C. with running buffer containing 10 mM HEPES pH 7.4, 150 mM NaCl, 0.005% P20 and 1% DMSO. ARM compounds of Formula (I) were titrated with a top concentration of 200 nM using a 3-fold 5-point dilution series and a corresponding 5-injection buffer cycle was run for blank subtraction. Data were double referenced by subtracting the response of the reference flow cell from that of the antibody-containing flow cell and subsequently subtracting the referenced blank sensorgrams. Following compound analysis, the surface was regenerated using a 30 second injection of pH 1.5 glycine at a flow rate of 30 μL/min after which antibody was re-captured. The experiment was run using Biacore T200 control software and evaluated using Biacore T200 Evaluation software. Curves were fit with a 1:1 kinetic binding model to obtain kon (1/Ms), koff(1/s), Kd (M) determined as koff/kon, and residence time determined as 1/koff (s).
Anti-cotinine antibody was tested for binding to ARMs compounds of Formula (I) of the invention in the above assay in or more experimental runs and the results are shown in Table 5 below. Affinity is reported as a pKd value. The pKd value is the negative log of the Kd value, wherein the Kd value is the dissociation constant measured in molar (M) as noted above. For compounds tested in more than one experimental run, the pKd value is reported as an average

[3] = tested on: CCR2 expressing cells (CD11b+Ly6c+Hi) in peripheral blood; experiment: In vivo depletion assay, flow cytometry of peripheral blood (Example 201); parameters: species or system human CCR2 knock-in mice (C57 background); conditions: hCCR2 knock-in mice, IV 0.1 mpk compound + 10 mpk anti-cotinine antibody (SEQ ID NO: 13/14), peripheral blood at 48 hr
Summary of the method: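 Flow cytometry of blood collected at study termination quantified percent depletion of CD11b+Ly6c+Hi cells and CCR2 expression, using surface markers CD45, CD3, CD11b, Ly6C, human CCR2 after Fc block, with 7AAD viability stain. Compound given in saline:DMSO:PBS formulation, optionally combined with anti-cotinine antibody, incubated 30 min before administration.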

[4] = molecular target: human alpha1 nicotinic acetylcholine (nACh) receptor (Homo sapiens, UniProt P02708); experiment: Nicotinic acetylcholine receptor antagonism assay, IONFlux automated patch clamp (Example 203); assay type: cell-based; conditions: for IC50: antagonism of ACh-stimulated human alpha1 nAChR current, patch clamp; for Emax at 10 µM: maximum percentage antagonism at maximum concentration tested 10 μM, read-out: Maximum Response
Summary of the method: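 Cells expressing human α1 nAChR were incubated with a compound dose response (top 10 μM or 100 μM), then stimulated with ACh (10 mM), and peak current was read by automated patch clamp. % inhibition was taken against ACh-alone control, corrected for vehicle and run-down, and fit non-linearly for IC50; runs were averaged.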

Chain of human alpha1 nicotinic acetylcholine (nACh) receptor (P02708 21-457): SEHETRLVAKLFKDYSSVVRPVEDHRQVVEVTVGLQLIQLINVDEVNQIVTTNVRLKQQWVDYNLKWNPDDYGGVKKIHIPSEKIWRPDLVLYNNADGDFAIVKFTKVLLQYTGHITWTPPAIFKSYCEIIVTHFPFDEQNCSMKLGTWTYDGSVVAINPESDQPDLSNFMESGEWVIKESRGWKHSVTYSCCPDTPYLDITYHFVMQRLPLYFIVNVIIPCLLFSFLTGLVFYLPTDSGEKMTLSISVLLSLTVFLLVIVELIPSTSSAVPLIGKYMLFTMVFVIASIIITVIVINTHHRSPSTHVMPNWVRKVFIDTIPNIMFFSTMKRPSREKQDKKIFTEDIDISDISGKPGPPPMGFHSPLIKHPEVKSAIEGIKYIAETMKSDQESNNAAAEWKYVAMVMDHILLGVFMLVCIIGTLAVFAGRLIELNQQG
Chain of human alpha1 nicotinic acetylcholine (nACh) receptor (P11230 24-501 partner): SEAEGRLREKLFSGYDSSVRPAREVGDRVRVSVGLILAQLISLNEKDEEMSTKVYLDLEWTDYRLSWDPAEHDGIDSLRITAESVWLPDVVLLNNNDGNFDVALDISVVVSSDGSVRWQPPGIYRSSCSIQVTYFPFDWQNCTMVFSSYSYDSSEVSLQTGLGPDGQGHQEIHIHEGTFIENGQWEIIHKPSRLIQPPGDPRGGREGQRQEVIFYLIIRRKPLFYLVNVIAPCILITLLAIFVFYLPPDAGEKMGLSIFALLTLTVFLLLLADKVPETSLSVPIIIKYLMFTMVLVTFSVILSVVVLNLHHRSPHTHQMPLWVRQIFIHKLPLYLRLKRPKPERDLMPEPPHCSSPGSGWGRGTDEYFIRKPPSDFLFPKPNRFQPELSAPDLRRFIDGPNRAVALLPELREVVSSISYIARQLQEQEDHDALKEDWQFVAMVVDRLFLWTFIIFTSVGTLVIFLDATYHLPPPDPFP
Chain of human alpha1 nicotinic acetylcholine (nACh) receptor (Q07001 22-517 partner): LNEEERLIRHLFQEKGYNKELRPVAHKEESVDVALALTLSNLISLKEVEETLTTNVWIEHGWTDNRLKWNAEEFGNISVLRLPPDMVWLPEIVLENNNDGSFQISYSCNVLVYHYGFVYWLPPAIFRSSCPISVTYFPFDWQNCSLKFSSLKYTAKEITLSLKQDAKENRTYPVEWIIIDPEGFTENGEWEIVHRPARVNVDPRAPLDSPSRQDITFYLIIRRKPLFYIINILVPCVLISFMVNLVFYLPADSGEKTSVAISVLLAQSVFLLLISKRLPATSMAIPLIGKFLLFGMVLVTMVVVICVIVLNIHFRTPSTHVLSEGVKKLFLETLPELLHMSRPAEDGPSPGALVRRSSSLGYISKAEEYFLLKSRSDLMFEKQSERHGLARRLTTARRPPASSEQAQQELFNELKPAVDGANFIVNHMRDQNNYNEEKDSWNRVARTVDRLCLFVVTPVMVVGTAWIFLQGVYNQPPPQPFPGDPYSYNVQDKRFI

| SMILES | EC50 [1] [nM] | pKd of Antibody for ARM Compound of Formula (I) [2] | % Depletion of CCR2 expressing cells [3] [%] | IC50 [4] [µM] | Emax at 10 µM [4] [%] |
| --- | --- | --- | --- | --- | --- |
| CN1C(=O)C[C@H](C(=O)NCCO[C@H]2CC[C@@H](OCCCC(=O)N[C@H]3CC[C@H](C(=O)N[C@@H]4C[C@H](NC(C)(C)C)CC[C@@H]4N4CC[C@H](Nc5ncnc6ccc(C(F)(F)F)cc56)C4=O)CC3)CC2)[C@H]1c1cccnc1 [Example 2, (2S,3S)-N-(2-(((1S,4R)-4-(4-(((1R,4R)-4-(((1R,2S,5R)-5-(tert-Butylamino)-2-((S)-2-oxo-3-((6-(trifluoromethyl)quinazolin-4-yl)amino)pyrrolidin-1-yl)cyclohexyl)carbamoyl)cyclohexyl)amino)-4-oxobutoxy)cyclohexyl)oxy)ethyl)-1-methyl-5-oxo-2-(pyridin-3-yl)pyrrolidine-3-carboxamide] | 0.398 | 9.4775 | 92.3 |  |  |
| CC(C)N(C)[C@@H]1CC[C@H](N2CC[C@H](Nc3ncnc4ccc(C(F)(F)F)cc34)C2=O)[C@H](NC(=O)[C@H]2CC[C@H](NC(=O)CCCO[C@H]3CC[C@H](OCCNC(=O)[C@H]4CC(=O)N(C5CC5)[C@@H]4c4cccnc4)CC3)CC2)C1 [Example 13, (2S,3S)-1-cyclopropyl-N-(2-(((1R,4S)-4-(4-(((1R,4R)-4-(((1R,2S,5R)-5-(isopropyl(methyl)amino)-2-((S)-2-oxo-3-((6-(trifluoromethyl)quinazolin-4-yl)amino)pyrrolidin-1-yl)cyclohexyl)carbamoyl)cyclohexyl)amino)-4-oxobutoxy)cyclohexyl)oxy)ethyl)-5-oxo-2-(pyridin-3-yl)pyrrolidine-3-carboxamide] |  | 10.511 | 96.07 |  |  |
| CC(C)N(C)[C@@H]1CC[C@H](N2CC[C@H](Nc3ncnc4ccc(C(F)(F)F)cc34)C2=O)[C@H](NC(=O)[C@H]2CC[C@@H](NC(=O)CCCC(=O)NCCCC(=O)NCCCNC(=O)[C@H]3CC(=O)N(C)[C@@H]3c3cccnc3)CC2)C1 [Example 56, N^1-((1S,4s)-4-(((1R,2S,5R)-5-(Isopropyl(methyl)amino)-2-((S)-2-oxo-3-((6-(trifluoromethyl)quinazolin-4-yl)amino)pyrrolidin-1-yl)cyclohexyl)carbamoyl)cyclohexyl)-N^5-(4-((3-((2S,3S)-1-methyl-5-oxo-2-(pyridin-3-yl)pyrrolidine-3-carboxamido)propyl)amino)-4-oxobutyl)glutaramide] |  | 9.3185 | 97 |  |  |
| CC(C)N(C)[C@@H]1CC[C@H](N2CC[C@H](Nc3ncnc4ccc(C(F)(F)F)cc34)C2=O)[C@H](NC(=O)[C@H]2CC[C@@H](C3CCN(C(=O)CCOCCOCCNC(=O)[C@H]4CC(=O)N(C)[C@@H]4c4cccnc4)CC3)CC2)C1 [Example 72, (2S,3S)-N-(2-(2-(3-(4-((1S,4s)-4-(((1R,2S,5R)-5-(isopropyl(methyl)amino)-2-((S)-2-oxo-3-((6-(trifluoromethyl)quinazolin-4-yl)amino)pyrrolidin-1-yl)cyclohexyl)carbamoyl)cyclohexyl)piperidin-1-yl)-3-oxopropoxy)ethoxy)ethyl)-1-methyl-5-oxo-2-(pyridin-3-yl)pyrrolidine-3-carboxamide] | 7.94 | 9.8865 |  | ≥ 10 | 32.7 |
| CC(C)N(C)[C@@H]1CC[C@H](N2CC[C@H](Nc3ncnc4ccc(C(F)(F)F)cc34)C2=O)[C@H](NC(=O)[C@H]2CC[C@H](C3CCN(C(=O)CCOCCOCCNC(=O)[C@H]4CC(=O)N(C)[C@@H]4c4cccnc4)CC3)CC2)C1 [Example 73, (2S,3S)-N-(2-(2-(3-(4-((1R,4r)-4-(((1R,2S,5R)-5-(Isopropyl(methyl)amino)-2-((S)-2-oxo-3-((6-(trifluoromethyl)quinazolin-4-yl)amino)pyrrolidin-1-yl)cyclohexyl)carbamoyl)cyclohexyl)piperidin-1-yl)-3-oxopropoxy)ethoxy)ethyl)-1-methyl-5-oxo-2-(pyridin-3-yl)pyrrolidine-3-carboxamide] | 100000 | 9.8185 |  | ≥ 10 | 4.1 |
| CC(C)N(C)[C@@H]1CC[C@H](N2CC[C@H](Nc3ncnc4ccc(C(F)(F)F)cc34)C2=O)[C@H](NC(=O)COCCOCCNC(=O)CCOCCOCCNC(=O)[C@H]2CC(=O)N(C)[C@@H]2c2cccnc2)C1 [Example 77, (2S,3S)-N-(1-(((1R,2S,5R)-5-(Isopropyl(methyl)amino)-2-((S)-2-oxo-3-((6-(trifluoromethyl)quinazolin-4-yl)amino)pyrrolidin-1-yl)cyclohexyl)amino)-1,10-dioxo-3,6,13,16-tetraoxa-9-azaoctadecan-18-yl)-1-methyl-5-oxo-2-(pyridin-3-yl)pyrrolidine-3-carboxamide] | 6.31 | 9.152 |  | ≥ 10 | 19.6 |
| CC(C)N(C)[C@@H]1CC[C@H](N2CC[C@H](Nc3ncnc4ccc(C(F)(F)F)cc34)C2=O)[C@H](NC(=O)[C@H]2CC[C@@H](NC(=O)CNC(=O)CCOCCOCCNC(=O)[C@H]3CC(=O)N(C)[C@@H]3c3cccnc3)CC2)C1 [Example 83, (2S,3S)-N-(2-(2-(3-((2-(((1S,4s)-4-(((1R,2S,5R)-5-(Isopropyl(methyl)amino)-2-((S)-2-oxo-3-((6-(trifluoromethyl)quinazolin-4-yl)amino)pyrrolidin-1-yl)cyclohexyl)carbamoyl)cyclohexyl)amino)-2-oxoethyl)amino)-3-oxopropoxy)ethoxy)ethyl)-1-methyl-5-oxo-2-(pyridin-3-yl)pyrrolidine-3-carboxamide] |  | 9.302 | 67 |  |  |
| CC(C)N(C)[C@@H]1CC[C@H](N2CC[C@H](Nc3ncnc4ccc(C(F)(F)F)cc34)C2=O)[C@H](NC(=O)COCCNC(=O)CCNC(=O)CCOCCOCCNC(=O)[C@H]2CC(=O)N(C)[C@@H]2c2cccnc2)C1 [Example 181, (2S,3S)-N-(1-(((1R,2S,5R)-5-(Isopropyl(methyl)amino)-2-((S)-2-oxo-3-((6-(trifluoromethyl)quinazolin-4-yl)amino)pyrrolidin-1-yl)cyclohexyl)amino)-1,7,11-trioxo-3,14,17-trioxa-6,10-diazanonadecan-19-yl)-1-methyl-5-oxo-2-(pyridin-3-yl)pyrrolidine-3-carboxamide] | 0.398 | 9.1645 |  |  |  |
| CC(C)N(C)[C@@H]1CC[C@H](N2CC[C@H](Nc3ncnc4ccc(C(F)(F)F)cc34)C2=O)[C@H](NC(=O)[C@H]2CC[C@@H](NC(=O)CCOCCNC(=O)CCCCNC(=O)[C@H]3CC(=O)N(C)[C@@H]3c3cccnc3)CC2)C1 [Example 198, (2S,3S)-N-(5-((2-(3-(((1S,4s)-4-(((1R,2S,5R)-5-(Isopropyl(methyl)amino)-2-((S)-2-oxo-3-((6-(trifluoromethyl)quinazolin-4-yl)amino)pyrrolidin-1-yl)cyclohexyl)carbamoyl)cyclohexyl)amino)-3-oxopropoxy)ethyl)amino)-5-oxopentyl)-1-methyl-5-oxo-2-(pyridin-3-yl)pyrrolidine-3-carboxamide] | 0.501 | 9.3835 |  |  |  |
